Measured values taken from US20100267561A1, “HERBICIDAL PYRIDAZINONE DERIVATIVES” (priority 2007, published 2010).

Tests used:
Assay in all cases: Test B pre-/postemergence plant response
Assay type in all cases: in vivo
[1] = tested on: pigweed (Amaranthus retroflexus); settings: for Pigweed plant response rating: postemergence, 0-100 scale; for Plant response rating, Pigweed: Postemergence
In short: (§1)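 Visual scoring from 0 (no effect) to 100 (complete control) against untreated controls was done 13 to 15 days after greenhouse treatment. Chemicals were formulated in a surfactant-containing non-phytotoxic solvent and applied to soil preemergence or to 1- to 4-leaf (2-18 cm) plants postemergence.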

[2] = tested on: giant foxtail (Setaria faberii); settings: for Foxtail, Giant plant response rating: 8 g ai/ha, postemergence, 0-100 scale; for Plant response rating, Foxtail, Giant: Postemergence
In short: as §1

[3] = tested on: morningglory (Ipomoea coccinea); settings: for Morningglory plant response rating: postemergence, 0-100 scale; for Plant response rating, Morningglory: Postemergence
In short: as §1

kochia (Kochia scoparia) = settings: for Kochia plant response rating: postemergence, 0-100 scale; for Plant response rating, Kochia: Postemergence
In short: as §1

[4] = tested on: surinam grass (Brachiaria decumbens); settings: for Surinam Grass plant response rating: postemergence, 0-100 scale; for Plant response rating, Surinam Grass: Postemergence
In short: as §1

[5] = tested on: johnsongrass (Sorghum halepense); settings: for Johnsongrass plant response rating: postemergence, 0-100 scale; for Plant response rating, Johnsongrass: Postemergence
In short: as §1

[6] = tested on: woolly cupgrass (Eriochloa villosa); settings: for Cupgrass, Woolly plant response rating: 8 g ai/ha, postemergence, 0-100 scale; for Plant response rating, Cupgrass, Woolly: Postemergence
In short: as §1

[7] = tested on: downy bromegrass (Bromus tectorum); settings: for Bromegrass, Downy plant response rating: 8 g ai/ha, postemergence, 0-100 scale; for Plant response rating, Bromegrass, Downy: Postemergence
In short: as §1

[8] = tested on: blackgrass (Alopecurus myosuroides); settings: for Blackgrass plant response rating: 8 g ai/ha, postemergence, 0-100 scale; for Plant response rating, Blackgrass: Postemergence
In short: as §1

[9] = tested on: green foxtail (Setaria viridis); settings: for Foxtail, Green plant response rating: 8 g ai/ha, postemergence, 0-100 scale; for Plant response rating, Foxtail, Green: Postemergence
In short: as §1

corn (Zea mays) = settings: for Corn plant response rating: 8 g ai/ha, postemergence, 0-100 scale; for Plant response rating, Corn: Postemergence
In short: as §1

[10] = 62 g ai/ha, scale 0 to 100, 0 no effect, 100 complete control

Cc1nn(C)c(=O)c(-n2nc(-c3ccc(Cl)cc3)cc2Cl)c1O [Compound 59]
60: Plant response rating, Johnsongrass ([5]; 31 g ai/ha, scale 0 to 100) | Plant response rating, Cupgrass, Woolly ([6]; 16 g ai/ha, scale 0 to 100) | Plant response rating, Blackgrass ([8]; 16 g ai/ha, scale 0 to 100)
55: Cupgrass, Woolly plant response rating [6]
85: Plant response rating, Foxtail, Giant ([2]; 16 g ai/ha, scale 0 to 100) | Plant response rating, Surinam Grass ([4]; 16 g ai/ha, scale 0 to 100) | Plant response rating, Cupgrass, Woolly [6, 10] | Plant response rating, Corn (corn (Zea mays); 16 g ai/ha, scale 0 to 100) | Plant response rating, Corn (corn (Zea mays); 31 g ai/ha, scale 0 to 100)
5: Plant response rating, Bromegrass, Downy ([7]; 16 g ai/ha, scale 0 to 100) | Plant response rating, Bromegrass, Downy ([7]; 31 g ai/ha, scale 0 to 100)
0: Pigweed plant response rating ([1]; 8 g ai/ha) | Plant response rating, Pigweed ([1]; 16 g ai/ha, scale 0 to 100) | Plant response rating, Pigweed ([1]; 31 g ai/ha, scale 0 to 100) | Plant response rating, Pigweed [1, 10] | Morningglory plant response rating ([3]; 8 g ai/ha) | Plant response rating, Morningglory ([3]; 16 g ai/ha, scale 0 to 100) | Plant response rating, Morningglory ([3]; 31 g ai/ha, scale 0 to 100) | Plant response rating, Morningglory [3, 10] | Kochia plant response rating (kochia (Kochia scoparia); 8 g ai/ha) | Plant response rating, Kochia (kochia (Kochia scoparia); 16 g ai/ha, scale 0 to 100) | Plant response rating, Kochia (kochia (Kochia scoparia); 31 g ai/ha, scale 0 to 100) | Plant response rating, Kochia (kochia (Kochia scoparia); [10]) | Johnsongrass plant response rating ([5]; 8 g ai/ha) | Plant response rating, Johnsongrass ([5]; 16 g ai/ha, scale 0 to 100) | Bromegrass, Downy plant response rating [7] | Blackgrass plant response rating [8] | Corn plant response rating (corn (Zea mays))
95: Plant response rating, Foxtail, Giant [2, 10] | Plant response rating, Foxtail, Green [9, 10]
90: Plant response rating, Foxtail, Giant ([2]; 31 g ai/ha, scale 0 to 100) | Plant response rating, Surinam Grass ([4]; 31 g ai/ha, scale 0 to 100) | Plant response rating, Blackgrass ([8]; 31 g ai/ha, scale 0 to 100) | Plant response rating, Blackgrass [8, 10] | Plant response rating, Foxtail, Green ([9]; 16 g ai/ha, scale 0 to 100) | Plant response rating, Foxtail, Green ([9]; 31 g ai/ha, scale 0 to 100) | Plant response rating, Corn (corn (Zea mays); [10])
100: Plant response rating, Surinam Grass [4, 10]
65: Plant response rating, Cupgrass, Woolly ([6]; 31 g ai/ha, scale 0 to 100)
50: Foxtail, Green plant response rating [9]
10: Plant response rating, Bromegrass, Downy [7, 10]
75: Surinam Grass plant response rating ([4]; 8 g ai/ha)
80: Foxtail, Giant plant response rating [2] | Plant response rating, Johnsongrass [5, 10]

CCc1cc(-c2ccc(Br)cc2)nn1-c1c(O)cnn(CC(F)(F)F)c1=O [Compound 73]
95: Corn plant response rating (corn (Zea mays))
30: Foxtail, Giant plant response rating [2] | Plant response rating, Bromegrass, Downy ([7]; 31 g ai/ha, scale 0 to 100)
0: Pigweed plant response rating ([1]; 8 g ai/ha) | Pigweed plant response rating ([1]; 16 g ai/ha) | Plant response rating, Pigweed ([1]; 31 g ai/ha, scale 0 to 100) | Plant response rating, Pigweed [1, 10] | Morningglory plant response rating ([3]; 8 g ai/ha) | Morningglory plant response rating ([3]; 16 g ai/ha) | Plant response rating, Morningglory ([3]; 31 g ai/ha, scale 0 to 100) | Plant response rating, Morningglory [3, 10] | Kochia plant response rating (kochia (Kochia scoparia); 8 g ai/ha) | Kochia plant response rating (kochia (Kochia scoparia); 16 g ai/ha) | Plant response rating, Kochia (kochia (Kochia scoparia); 31 g ai/ha, scale 0 to 100) | Plant response rating, Kochia (kochia (Kochia scoparia); [10]) | Bromegrass, Downy plant response rating [7] | Plant response rating, Bromegrass, Downy ([7]; 16 g ai/ha, scale 0 to 100)
40: Foxtail, Green plant response rating [9]
90: Plant response rating, Foxtail, Giant ([2]; 31 g ai/ha, scale 0 to 100) | Surinam Grass plant response rating ([4]; 16 g ai/ha) | Plant response rating, Surinam Grass ([4]; 31 g ai/ha, scale 0 to 100) | Plant response rating, Johnsongrass ([5]; 31 g ai/ha, scale 0 to 100)
98: Plant response rating, Cupgrass, Woolly ([6]; 16 g ai/ha, scale 0 to 100)
70: Plant response rating, Foxtail, Giant ([2]; 16 g ai/ha, scale 0 to 100) | Johnsongrass plant response rating ([5]; 8 g ai/ha) | Plant response rating, Foxtail, Green ([9]; 16 g ai/ha, scale 0 to 100) | Plant response rating, Foxtail, Green ([9]; 31 g ai/ha, scale 0 to 100)
60: Surinam Grass plant response rating ([4]; 8 g ai/ha) | Plant response rating, Bromegrass, Downy [7, 10] | Blackgrass plant response rating [8]
85: Johnsongrass plant response rating ([5]; 16 g ai/ha) | Cupgrass, Woolly plant response rating [6]
100: Plant response rating, Foxtail, Giant [2, 10] | Plant response rating, Surinam Grass [4, 10] | Plant response rating, Johnsongrass [5, 10] | Plant response rating, Cupgrass, Woolly ([6]; 31 g ai/ha, scale 0 to 100) | Plant response rating, Cupgrass, Woolly [6, 10] | Plant response rating, Blackgrass ([8]; 16 g ai/ha, scale 0 to 100) | Plant response rating, Blackgrass ([8]; 31 g ai/ha, scale 0 to 100) | Plant response rating, Blackgrass [8, 10] | Plant response rating, Foxtail, Green [9, 10] | Plant response rating, Corn (corn (Zea mays); 16 g ai/ha, scale 0 to 100) | Plant response rating, Corn (corn (Zea mays); 31 g ai/ha, scale 0 to 100) | Plant response rating, Corn (corn (Zea mays); [10])
